According to patent US5126057A, “Disinfecting with N,N'-dihaloimidazolidin-4-ones” (Auburn Research Foundation, priority 1991, dated 1992):

Legend:
bacteria = test: Bactericidal efficacy, summary over all bacteria and conditions; assay type: cell-based, Staphylococcus aureus and Pseudomonas aeruginosa
Protocol: (§1) The halogenated imidazolidin-4-one derivatives prepared as in examples 3, 5, and 6 (Compounds 1, 5, and 3, respectively) were tested as bactericides against the microorganisms Staphylococcus aureus (ATCC25923) and Pseudomonas aeruginosa (ATCC 27853) in demand-free water (DFW) as a function of pH and temperature and in a synthetic-demand water (SDW) at pH 9.5 and 4° C. The demand-free and synthetic-demand waters were prepared as described in examples 7 and 12, respectively.
(§2) For the bactericidal efficacy tests 50 milliliters of buffered DFW or SDW were placed in a 125 milliliter flask which was then inoculated with the organism to be tested such that the final density of the organism was about 1×10^6 cfu/ml (colony forming units per milliliter). The inoculated solution was allowed to equilibrate at the test temperature by immersion in a thermostated water bath for 15 minutes with constant stirring. Then an appropriate amount of an aqueous solution containing the test halogenated imidazolidin-4-one compound maintained at the same test temperature was added to the inoculated solution to bring the total concentration of potential positive halogen (Cl^+ or Cl^+ /Br^+) in the mixture to a predetermined level (10 parts per million and 5 parts per million Cl^+ from compounds 1 and 3; the molar equivalent in Cl^+ /Br^+ from Compound 5). 1 milliliter aliquots were removed from the test mixture at various predetermined times, and the active halogen was quenched by 1 milliliter portions of sterile 0.02 Normal sodium thiosulfate. Serial dilutions were made into sterile saline, and three 25 microliter aliquots of each of the resulting dilutions were applied to the dried surface of a Petri dish containing tryptic soy and nutrient agars for plating S. aureus and P. aeruginosa, respectively. After 48 hours at 37° C. the three replicates for each dilution were counted and averaged. This average was used to compute the cfu/ml for that particular aliquot. Inactivation of the organism was considered to be at least 99.9999 percent when no colonies were detected in the thiosulfate quenched aliquots.

[1] = tested on: Staphylococcus aureus (ATCC25923); test: Bactericidal efficacy, percent inactivation of S. aureus; assay type: cell-based; conditions: for killing at 5 ppm: DFW; for killing at 10 ppm: pH 9.5, pH 9.5, 4° C., SDW
Protocol: as §1, §2

[2] = Stability in synthetic halogen demand water (SDW); assay type: physicochemical; conditions: 4° C.
Protocol: A synthetic halogen demand water (SDW) was prepared by mixing the following substances with demand-free water (DFW): 375 milligrams per liter of each of the inorganic salts sodium chloride, potassium chloride, calcium chloride, and magnesium chloride; 50 milligrams per liter of Bentonite clay; 30 milligrams per liter of humic acid; 0.01 percent final concentration of heat-treated horse serum; and 5×10^5 cells per milliliter of heat-killed Saccharomyces cerevisiae yeast cells. The SDW solution was buffered with 0.01 Molar borate/sodium hydroxide to a pH of 9.5 and held at 4° C. during the experiments. The conditions of high ionic strength, turbidity, and organic material, and alkaline pH at low temperature, are viewed as a worst-case scenario for disinfection applications and thus should provide the optimum test of stability for the new compounds.
In separate flasks were dissolved compounds 1, 2, 3, and 5 to a starting concentration of 10 milligrams per liter total potential positive chlorine or its molar equivalent (16.25 milligrams per liter) in total potential positive halogen for Compound 5. Aliquots were withdrawn frequently over a period of more than 90 hours, and the percent positive halogen remaining was determined by standard iodometric titration.

[3] = Laboratory stability in halogen demand-free water (DFW), iodometric titration; assay type: physicochemical; conditions: pH 7
Protocol: The stability of 1,3-dichloro-2,2,5,5-tetramethylimidazolidin-4-one (Compound 1) in halogen demand-free water was determined at 22° C. and pH values of 4.5, 7.0, and 9.5, and the results were compared to those for free chlorine as supplied by calcium hypochlorite. The demand-free water (DFW) was prepared by chlorination of distilled, deionized water buffered to the appropriate pH followed by dechlorination (of the excess free chlorine) by exposure to direct sunlight until no free chlorine remained. This treatment insured that all halogen demand in the water was neutralized. Then Compound 1 and calcium hypochlorite were separately dissolved in identical DFW (buffered to an appropriate pH) solutions to the same final total chlorine concentrations (10 milligrams per liter potential positive chlorine). The solutions in separate flasks, which were stoppered with porous, sterile cotton plugs to allow free exchange with laboratory air, were then held at a constant temperature of 22° C. by means of a controlled water bath for a period of several weeks. Aliquots were withdrawn periodically (at least weekly), and the total positive chlorine remaining was determined in triplicate by standard iodometric titration. […]
The stabilities of 1,3-dibromo-2,2,5,5-tetramethylimidazolidin-4-one (Compound 4) and 1-bromo-3-chloro-2,2,5,5-tetramethylimidazolidin-4-one (Compound 5) in halogen demand-free water (DFW) were determined at 22° C. and pH values of 7.0 and 9.5 using the same procedures as discussed under example 9. Given the instability of Compound 1 at pH 4.5 (example 9), it was deemed unnecessary to test compounds 4 and 5 at that pH. The two compounds were dissolved in DFW buffered to the appropriate pH in separate flasks and held at a temperature of 22° C. by means of a constant temperature bath. The starting concentrations of total potential positive halogen in the two solutions were 22.6 milligrams per liter for Compound 4 and 16.25 milligrams per liter for Compound 5; these concentrations represent the molar equivalents in total potential positive halogen to that used for Compound 1 in example 9. The solutions were analyzed in the manner described in example 9.

remaining at 0.083 h ([2]; synthetic halogen demand water, SDW, pH 9.5, 0.083 hrs, read-out: Percent Halogen Remaining): 99.2%
remaining at 0.5 h ([2]; synthetic halogen demand water, SDW, pH 9.5, 0.5 hrs, read-out: Percent Halogen Remaining): 96.6%
remaining at 2 h ([2]; synthetic halogen demand water, SDW, pH 9.5, 2.0 hrs, read-out: Percent Halogen Remaining): 95.4%
remaining at 8 h ([2]; synthetic halogen demand water, SDW, pH 9.5, 8.0 hrs, read-out: Percent Halogen Remaining): 94.1%
remaining at 24 h ([2]; synthetic halogen demand water, SDW, pH 9.5, 24.0 hrs, read-out: Percent Halogen Remaining): 94.9%
remaining at 48 h ([2]; synthetic halogen demand water, SDW, pH 9.5, 48.0 hrs, read-out: Percent Halogen Remaining): 94.5%
remaining at 72 h ([2]; synthetic halogen demand water, SDW, pH 9.5, 72.0 hrs, read-out: Percent Halogen Remaining): 94.1%
remaining at 122 h ([2]; synthetic halogen demand water, SDW, pH 9.5, 122.0 hrs, read-out: Percent Halogen Remaining): 94.1%
Structure (SMILES): CC1(C)NC(=O)C(C)(C)N1Cl [Compound 3, 1-chloro-2,2,5,5-tetramethylimidazolidin-4-one]
bactericidal efficiency (in words) (bacteria; Table V conditions): least efficient
inactivation (bacteria; all conditions tested, given sufficient contact time): greater than 99.9999%
killing at 5 ppm ([1]; ATCC25923, 5 min, pH 4.5, pH 4.5, 22° C., 5 minutes): 87.4%
killing at 5 ppm ([1]; ATCC25923, 5 min, pH 7, pH 7.0, 22° C., 5 minutes): 0%
killing at 10 ppm ([1]; ATCC25923, 5 min, 5 minutes): 2.86%
killing at 5 ppm ([1]; ATCC25923, 5 min, pH 9.5, pH 9.5, 22° C., 5 minutes): 32.7%
killing at 5 ppm ([1]; ATCC25923, 10 min, pH 4.5, pH 4.5, 22° C., 10 minutes): 96.3%
killing at 5 ppm ([1]; ATCC25923, 10 min, pH 7, pH 7.0, 22° C., 10 minutes): 4.42%
killing at 10 ppm ([1]; ATCC25923, 10 min, 10 minutes): 0%
killing at 5 ppm ([1]; ATCC25923, 10 min, pH 9.5, pH 9.5, 22° C., 10 minutes): 50.2%
stability (in words) ([2]; heavy halogen demand (SDW), pH 9.5): extremely stable in the presence of heavy demand
stability (in words) [3]: more stable than Compound 1 and considerably more stable than free chlorine (Compound 2) in DFW at pH 7.0 and 22 °C
